US10954348B2, “Biocompatible nanoparticle and use thereof” (KYUNGPOOK NATIONAL UNIVERSITY INDUSTRY-ACADEMIC COOPERATION …, priority 2016, dated 2021)
“Also recorded” adds a separate entry of the source.

Columns and labels:
[1] = format: in vivo; conditions: CT26 tumor mice, 200 μg doxorubicin i.v. three times at intervals of two days, over 33 days
[2] = tested on: Colorectal cancer mouse tumor models (CT26 tumor model); test: In vivo tumor growth inhibition; conditions: CT26 tumor mice, 200 μg doxorubicin i.v. three times at intervals of two days, over 33 days, versus PBS blank group
Experimental: Experiments were conducted to compare and investigate the ability of doxorubicin-conjugated dextran-based nanoparticles whether the nanoparticles could be used as a therapeutic agent capable of inhibiting tumor growth. Colorectal cancer mouse tumor models (CT26 tumor model) were used as tumor models in the experiments. 5×10^6 cells were injected into the flank of mice, and after 10 days, the tumors were visually recognized, and the mice were used for the experiments. The experiments were started by dividing the animal models into a blank group treated with PBS, a group treated with free doxorubicin (free DOX), and a group treated with doxorubicin-conjugated PEG-DNP (DOX@PEG-DNP)). The number of mice corresponding to each group was three, and each administration material was administered to the mouse tumor models via intravenous injection three times at intervals of two days. Here, the amounts of doxorubicin administered to the group treated with free doxorubicin and the group treated with doxorubicin-conjugated PEG-DNP (DOX@PEG-DNP) were 200 μg.
The size of tumors and the weight of mice in the tumor model were checked over 33 days, and the measurement results were monitored and compared. […] As time passed, there was a slight difference in body weight among the groups, but this was thought to be due to the difference of tumor size in the respective groups.

## COc1cccc2c1C(=O)c1c(O)c3c(c(O)c1C2=O)C[C@@](O)(C(=O)CO)C[C@@H]3O[C@H]1C[C@H](N)[C@H](O)[C@H](C)O1 [free doxorubicin, doxorubicin]
[1]
  body weight change: the body weight was not rapidly reduced
[2]
  tumor growth inhibition: the tumor growth rate of only one of three mice was not inhibited; also recorded: surely inhibited the tumor growth rate compared with the blank group
